Common to all, as to assay: Antimicrobial bioassay, inhibition zone
What all share (type): cell-based

The subject of one assay is Bacillus sp. The settings on record: extracts 5 mg/L, Imipenem 10 μg, mean of nine replicate plates. Here is the method:
(§1) Each of the mean measurements was obtained from the average of nine replicate plates. The test solution positive control was 10 μg Imipenem. Three Curcuma longa extracts (5 mg/L) were prepared from ethanolic rhizome extracts as well as the control.

The subject of the next assay is MRSA. The settings on record: Staphylococcus aureus, extracts 5 mg/L, Imipenem 10 μg, mean of nine replicate plates. Here is the method: as §1
A further assay concerns E. coli. The settings on record: Escherichia coli; extracts 5 mg/L; Imipenem 10 μg; mean of nine replicate plates. Here is the method:
as §1

A further assay has as its system S. aureus. To be noted: Staphylococcus aureus; extracts 5 mg/L; Imipenem 10 μg; mean of nine replicate plates. The protocol: as §1

`C[C@@H](O)[C@H]1C(=O)N2C(C(=O)O)=C(SCCN=CN)C[C@H]12` [Imipenem]: the zone of inhibition at 10 µg/disc in the assay with Bacillus sp. turned out to be 19 mm; in the assay with MRSA, 25 mm; in the assay on E. coli it was 20 mm; in the assay with S. aureus, 18 mm.

The record behind these values is patent US12083156B1, “Extracts derived from laser-irradiated rhizome of curcuma longa having enhanced antimicrobial activity” (KING FAISAL UNIVERSITY, priority 2023, dated 2024).
